The target in assay [1] is T1, HCoV-229E spike protein (Human coronavirus 229E, UniProt P15423).
T1 construct: purchased Acrobiosystems SPN-H52H3
T1 sequence (P15423 16-1173): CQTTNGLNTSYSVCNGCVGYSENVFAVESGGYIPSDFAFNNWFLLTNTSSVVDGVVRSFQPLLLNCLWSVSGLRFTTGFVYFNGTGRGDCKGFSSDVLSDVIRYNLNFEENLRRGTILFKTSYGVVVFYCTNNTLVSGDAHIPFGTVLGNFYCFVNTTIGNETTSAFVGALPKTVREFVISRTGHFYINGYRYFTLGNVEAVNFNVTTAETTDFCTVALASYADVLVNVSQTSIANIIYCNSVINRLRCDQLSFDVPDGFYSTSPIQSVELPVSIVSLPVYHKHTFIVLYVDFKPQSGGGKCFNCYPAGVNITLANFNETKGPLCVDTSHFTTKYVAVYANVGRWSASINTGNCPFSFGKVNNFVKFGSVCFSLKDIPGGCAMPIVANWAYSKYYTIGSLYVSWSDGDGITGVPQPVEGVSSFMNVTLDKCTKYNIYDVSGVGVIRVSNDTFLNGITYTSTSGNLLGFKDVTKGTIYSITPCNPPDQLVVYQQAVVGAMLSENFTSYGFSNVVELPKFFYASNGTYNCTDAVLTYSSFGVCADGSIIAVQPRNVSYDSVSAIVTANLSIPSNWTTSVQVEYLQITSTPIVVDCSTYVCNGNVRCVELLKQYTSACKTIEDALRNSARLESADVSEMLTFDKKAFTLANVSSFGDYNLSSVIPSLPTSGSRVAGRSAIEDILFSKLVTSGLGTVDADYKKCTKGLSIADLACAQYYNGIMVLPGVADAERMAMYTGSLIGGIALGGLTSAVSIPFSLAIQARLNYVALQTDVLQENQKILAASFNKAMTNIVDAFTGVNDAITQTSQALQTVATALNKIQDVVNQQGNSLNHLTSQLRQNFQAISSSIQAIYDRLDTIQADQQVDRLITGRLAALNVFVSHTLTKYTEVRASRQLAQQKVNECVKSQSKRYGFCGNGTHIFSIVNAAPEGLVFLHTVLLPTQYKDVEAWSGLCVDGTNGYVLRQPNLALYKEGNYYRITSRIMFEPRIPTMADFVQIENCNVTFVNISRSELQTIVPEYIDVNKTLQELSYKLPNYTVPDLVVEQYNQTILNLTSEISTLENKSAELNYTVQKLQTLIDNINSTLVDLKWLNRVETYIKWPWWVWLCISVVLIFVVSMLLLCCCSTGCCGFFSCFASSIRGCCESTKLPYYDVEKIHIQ
Nature of the assay: Microscale thermophoresis (MST) direct binding. The following applies: NT647-labeled spike protein, PBS, triplicate.

Assay [2] concerns the target T1, HCoV-229E spike protein. Nature of the assay: Surface plasmon resonance (SPR) direct binding. The following applies: spike immobilized on CM5 chip, HBS-P+ buffer, 25 °C, 1:1 model, koff/kon.
Assay [3] concerns the target T1, HCoV-229E spike protein. Description: Nanoscale differential scanning fluorometry (nanoDSF) thermal shift. It is filed as binding. The following applies: for ∆Tm: 200 μM compound, 2 μM spike protein, PBS pH 7.4; for Tm: 200 μM peptide, 2 µM protein, ramp 20-95 °C.
A further assay has as its system Influenza A H1N1 Virus. The arrangement: method as in earlier work. The following applies: concentration that reduced the cytopathic effect by 50%; cited from earlier work.
[4] abbreviates: concentration that reduced the cytopathic effect by 50%, virus pre-incubated with compound 1 h at 4 °C, compound present 72 h, MRC-5 cells, mean ± standard error of three experiments.

Values joined by “and” are separate entries in the source; they are usually repeats but may differ in a detail not shown here. Equal values may be shown once. Read-outs that look alike come from different tables or passages of the source. Non-standard residues stand in square brackets, D forms with d. Residues, ends and D or L forms follow the SMILES beside them. NMeH = CN[C@@H](Cc1c[nH]cn1)C(=O)O; Gly(N-CH2CH2OH) = O=C(O)CNCCO; NMeL = CN[C@@H](CC(C)C)C(=O)O

`CC(=O)N[C@@H](CO)C(=O)N[C@@H](CC(C)C)C(=O)N[C@@H](CC(=O)O)C(=O)N[C@@H](CS)C(N)=O` [Compound 1, SLDC] (Ac-SLDC-NH2): the Kd on HCoV-229E spike protein [1] is 4920 ± 700 nM; on HCoV-229E spike protein [2], > 50000 nM. Also, the EC50 with 229E Coronavirus (setting [4]) amounted to 50 ± 0.4 nM.
Regarding `CC(=O)N[C@@H](CO)C(=O)N[C@@H](CCCCN)C(=O)N[C@@H](Cc1c[nH]cn1)C(=O)N[C@@H](CO)C(N)=O` [Compound 2, SKHS] (Ac-SKHS-NH2), the Kd at HCoV-229E spike protein [1] was 5120 ± 600 nM; on HCoV-229E spike protein [2], 41400 ± 870 nM. In addition, the EC50 in the assay on 229E Coronavirus (setting [4]) was 500 ± 2 nM.
With `CC(=O)N[C@@H](CO)C(=O)N[C@@H](CCCCN)C(=O)N(C)[C@@H](Cc1c[nH]cn1)C(=O)N[C@@H](CO)C(N)=O` [Compound 3, SK(N-Me)HS] (Ac-SK[NMeH]S-NH2), the Kd at HCoV-229E spike protein [1] turned out to be 390 ± 50 nM; at HCoV-229E spike protein [2], 416 ± 442 nM. Also, the “∆Tm” value at HCoV-229E spike protein [3] came out at 0.3 °C. Also, on HCoV-229E spike protein [3], the Tm amounted to 81.9 °C. Besides, the EC50 in the assay on 229E Coronavirus (setting [4]) is ~0.031 nM and 0.031 nM; with 229E Coronavirus (read-out: EC50, Infection Cycle, compound present during adsorption and entire replication cycle (1 h + 72 h)) it was 0.043 nM; with Influenza A H1N1 Virus, 0.142 ± 0.002 nM.
As for `CC(=O)N[C@@H](CO)C(=O)N(C)[C@@H](CC(C)C)C(=O)N[C@@H](CC(=O)O)C(=O)N[C@@H](CS)C(N)=O` [Compound 4, S(N-Me)LDC] (Ac-S[NMeL]DC-NH2), at HCoV-229E spike protein [1], the affinity, expressed as Kd, was 2600 ± 1300 nM. The compound further came in with a Kd on HCoV-229E spike protein [2] of 1150 ± 182 nM. In addition, on HCoV-229E spike protein [3], the “∆Tm” value was determined as 0.1 °C and the Tm was found to be 81.7 °C. Besides, the EC50 in the assay on Influenza A H1N1 Virus was 0.085 ± 0.0004 nM.
Take `CC(=O)N[C@@H](CO)C(=O)N[C@@H](CCCCN)C(=O)N[C@@H](Cc1c[nH]cn1)C(=O)N(CCO)CC(N)=O` [Compound 6, SKHNhS] (Ac-SKH[Gly(N-CH2CH2OH)]-NH2): the Kd is 11000 ± 800 nM on HCoV-229E spike protein [1] and 1510 ± 465 nM at HCoV-229E spike protein [2]. The “∆Tm” value at HCoV-229E spike protein [3] was determined as 0.4 °C. Also, at HCoV-229E spike protein [3], the Tm amounted to 82.0 °C. The half-maximal effective concentration (EC50) in the assay with Influenza A H1N1 Virus was 0.5 ± 0.004 nM.

Source of the values: publication PMC12389581, “Inhibition of Human Coronavirus 229E by Lactoferrin-Derived Peptidomimetics” (Pharmaceutics, 2025).
